As a reminder, the IC50 is the concentration needed to halve the response being measured.

Molecules are shown by their SMILES. A value given as a limit tells only on which side of the number the result lay.

The test addresses T1, TLR9 (Homo sapiens, UniProt Q9NR96).
T1 construct: Fresh blood was collected from normal human donors; endogenous in cells; host or cells: human PBMCs from fresh donor blood
T1 sequence (Q9NR96 26-1032): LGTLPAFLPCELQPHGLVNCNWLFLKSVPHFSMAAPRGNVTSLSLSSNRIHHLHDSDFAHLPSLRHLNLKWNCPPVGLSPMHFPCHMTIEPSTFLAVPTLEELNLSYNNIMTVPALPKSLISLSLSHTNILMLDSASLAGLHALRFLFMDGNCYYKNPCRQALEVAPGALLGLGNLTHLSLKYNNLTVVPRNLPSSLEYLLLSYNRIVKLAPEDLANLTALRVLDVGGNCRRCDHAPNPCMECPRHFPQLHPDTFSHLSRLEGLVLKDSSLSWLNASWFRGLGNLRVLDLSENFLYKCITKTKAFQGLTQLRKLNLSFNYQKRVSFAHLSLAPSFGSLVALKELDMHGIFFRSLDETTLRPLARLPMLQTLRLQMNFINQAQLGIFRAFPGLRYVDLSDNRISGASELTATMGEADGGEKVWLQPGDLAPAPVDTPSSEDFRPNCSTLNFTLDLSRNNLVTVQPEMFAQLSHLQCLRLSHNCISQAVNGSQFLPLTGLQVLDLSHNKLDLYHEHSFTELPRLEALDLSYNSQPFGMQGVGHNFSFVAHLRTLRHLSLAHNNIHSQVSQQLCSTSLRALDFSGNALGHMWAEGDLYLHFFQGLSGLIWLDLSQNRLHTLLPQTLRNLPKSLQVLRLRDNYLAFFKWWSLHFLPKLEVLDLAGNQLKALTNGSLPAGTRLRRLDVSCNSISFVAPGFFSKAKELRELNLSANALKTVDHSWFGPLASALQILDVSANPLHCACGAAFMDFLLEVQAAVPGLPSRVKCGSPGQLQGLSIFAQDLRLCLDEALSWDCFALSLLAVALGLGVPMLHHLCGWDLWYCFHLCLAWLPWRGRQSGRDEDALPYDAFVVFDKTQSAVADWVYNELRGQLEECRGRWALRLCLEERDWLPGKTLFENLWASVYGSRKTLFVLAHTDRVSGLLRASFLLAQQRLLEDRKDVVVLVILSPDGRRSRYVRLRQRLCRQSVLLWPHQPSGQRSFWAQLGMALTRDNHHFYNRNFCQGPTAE
As to the kind of experiment: huPBMC TLR9 Antagonist IFNα Assay. It counts as cell-based. As to conditions: human PBMCs stimulated with ODN2216 0.3 μM, 14-16 hrs; IFNα2b AlphaLISA read-out. As to the method:
Compounds were generally serially diluted (1/3) in DMSO and plated on sterile 384 well tissue culture plates and stored until ready for use. Each ten-point dilution was typically plated in triplicate in parallel rows.
Fresh blood was collected from normal human donors underwritten informed consent in heparinized syringes on the morning of the assay. The blood was diluted in RPMI-1640 medium and the white blood cells were separated from red blood cells by centrifugation (800 g 15′ 0 acceleration, 0 brake) on a Ficoll cushion. Peripheral blood mononuclear cells (PBMCs) were separated from platelets by a series of low-speed centrifugations (1000RPM 10′) in PBS+5% HI—FBS and 1 mM EDTA. Purified PBMCs were re-suspended in assay medium (RPMI-1640 w Glutamax (Invitrogen) supplemented with 5% HI—FBS, 10 mM HEPES, 50 uM β-mercaptoethanol, and 100 mG/L penicillin/streptomycin cocktail). Viable PBMCs were counted on a hemacytometer and kept on ice until ready for plating.
A 4× concentration (4 ug/ml or 40 ug/ml for TLR8 or TLR7 assays, respectively) of the TLR7/8 agonist ssRNA40 (IDT) was complexed with 10% DOTAP (Roche) in assay medium for 30 min prior to addition to the PBMC suspension (5 million cells/ml). After addition, the final concentration of ssRNA40 in the TLR7/8 stimulated PBMC suspension was 1 μg/ml for TLR8 assay, and 10 μg/mL for the TLR7 assay. The final DOTAP concentration was 2.5%. Diluted PBMCs (5 million cells/ml) were treated with 4×TLR9 agonist ODN2216 (Invivogen). Final concentration of ODN2216 in TLR9 stimulated PBMC suspension was 0.3 μM.
Agonist stimulated PBMCs were plated on the compound treated 384 well plates at 150,000 cells/well. Un-stimulated PBMCs were plated as controls on each plate. Plating volume was 40 μL per well. DMSO concentration in each well was 0.25%.
A separate plate, without compounds, with titrations of ssRNA40 and ODN2216 was included in every assay to measure agonist response of each donor's PBMC prep. Assay plates were placed in a tissue culture incubator (37° C., 5% CO2) for 14-16 hrs. After this incubation, the plates were centrifuged and stored at −20° C. until they were assayed.
IL-6 TR-FRET Assay for TLR8 activity: • 1) Cisbio Human IL-6 kit, 20,000 tests (62TNFPEC), and GNF High-Base TC 384 well plates (cat #789163G) were used; • 2) the Anti-TIL-6 Cryptate conjugate and the Anti-IL-6 XL665 conjugate were diluted 1:20 in Reconstitution Buffer; • 3) a 1:1 mixture of 3 μl/well Anti-IL-6 Cryptate conjugate and 3 μl/well Anti-IL-6 XL665 conjugate was prepared; • 4) 6 μl/well HTRF dilution mastermix was added to 6 μl of transferred supernatant samples in proxiplates; • 5) The plates were incubated for 3 hrs at rt in the dark; and • 6) the levels of IL-6 production was measured using an Envision plate reader (665 nm (emmission)/590 nm (excitation)) with HTRF settings and ratiometric read-out: (XL665 emission/Eu Cryptate emission)×10,000. IFNα2b AlphaLISA Assay for TLR7 or TLR9 activity After thawing the assay plates, 6 μL of supernatant samples were transferred to a low-volume AlphaPlate 384SW (Perkin-Elmer). The concentration of IFNα in supernatants was measured using the IFNα2b AlphaLISA Assay (Perkin-Elmer: AL297F). 3 μL of IFNα acceptor beads/biotinylated antibody solution was added first, using laboratory automation. After an hour incubation, […] of streptavidin […] bead solution was added. The plates containing this mixture were incubated in the dark for an hour and read on an appropriate plate reader at reading parameters set by the manufacturer. (Envision, EnSpire: Perkin-Elmer).
A general note: Alpha assays give light when donor and acceptor beads are brought close together.
In the case of `Cc1cc(N2CCc3c(c(C)nn3CC34CCC(N)(CC3)CC4)C2)c2ccncc2n1` [Compound No. 3, 4-((3-methyl-5-(2-methyl-1,7-naphthyridin-4-yl)-4,5,6,7-tetrahydro-1H-pyrazolo[4,3-c]pyridin-1-yl)methyl)bicyclo[2.2.2]octan-1-amine], the IC50 was determined as 1930 nM.

In the case of `Cc1cc(N2CCc3c(c(C)nn3CC34CCC(NC5COC5)(CC3)CC4)C2)c2cnn(C)c2n1` [Compound No. 6, N-(4-((5-(1,6-dimethyl-1H-pyrazolo[3,4-b]pyridin-4-yl)-3-methyl-4,5,6,7-tetrahydro-1H-pyrazolo[4,3-c]pyridin-1-yl)methyl)bicyclo[2.2.2]octan-1-yl)oxetan-3-amine], the IC50 amounted to 1390 nM.

In the case of `Cc1cc(N2CCc3c(c(C)nn3CC34CCC(NC(=O)[C@@H]5COCCN5)(CC3)CC4)C2)c2cnn(C)c2n1` [Compound No. 8, (S)—N-(4-((5-(1,6-dimethyl-1H-pyrazolo[3,4-b]pyridin-4-yl)-3-methyl-4,5,6,7-tetrahydro-1H-pyrazolo[4,3-c]pyridin-1-yl)methyl)bicyclo[2.2.2]octan-1-yl)morpholine-3-carboxamide], the IC50 worked out at 4280 nM.

With `Cc1cc(N2CCc3c(c(C)nn3CC34CCC(NC(=O)[C@H]5COCCN5)(CC3)CC4)C2)c2cnn(C)c2n1` [Compound No. 9, (R)—N-(4-((5-(1,6-dimethyl-1H-pyrazolo[3,4-b]pyridin-4-yl)-3-methyl-4,5,6,7-tetrahydro-1H-pyrazolo[4,3-c]pyridin-1-yl)methyl)bicyclo[2.2.2]octan-1-yl)morpholine-3-carboxamide], the half-maximal inhibitory concentration (IC50) amounted to 5100 nM.

On to `Cc1nc(N2CCc3c(c(C)nn3CC34CCC(N5CC6(COC6)C5)(CC3)CC4)C2)c2c(n1)c(C)nn2C` [Compound No. 10, 6-(4-((3-methyl-5-(1,3,5-trimethyl-1H-pyrazolo[4,3-d]pyrimidin-7-yl)-4,5,6,7-tetrahydro-1H-pyrazolo[4,3-c]pyridin-1-yl)methyl)bicyclo[2.2.2]octan-1-yl)-2-oxa-6-azaspiro[3.3]heptane], for which the IC50 is above 10000 nM.

Take `Cc1nc(N2CCc3c(c(C)nn3CC34CCC(N)(CC3)CC4)C2)c2c(n1)c(C)nn2C` [Compound No. 26, 4-((3-methyl-5-(1,3,5-trimethyl-1H-pyrazolo[4,3-d]pyrimidin-7-yl)-4,5,6,7-tetrahydro-1H-pyrazolo[4,3-c]pyridin-1-yl)methyl)bicyclo[2.2.2]octan-1-amine]: the IC50 was above 1000 nM.

Regarding `Cc1cc(N2CCc3c(c(C)nn3CC34CCC(N(C)C)(CC3)CC4)C2)c2cnn(C)c2n1` [Compound No. 43, 4-((5-(1,6-dimethyl-1H-pyrazolo[3,4-b]pyridin-4-yl)-3-methyl-4,5,6,7-tetrahydro-1H-pyrazolo[4,3-c]pyridin-1-yl)methyl)-N,N-dimethylbicyclo[2.2.2]octan-1-amine], the IC50 stood at 511 nM.

On to `Cc1cc(N2CCc3c(c(C)nn3CC34CCC(N5CCN(C)C(=O)C5)(CC3)CC4)C2)c2cnn(C)c2n1` [Compound No. 104, 4-(4-((5-(1,6-dimethyl-1H-pyrazolo[3,4-b]pyridin-4-yl)-3-methyl-4,5,6,7-tetrahydro-1H-pyrazolo[4,3-c]pyridin-1-yl)methyl)bicyclo[2.2.2]octan-1-yl)-1-methylpiperazin-2-one], for which the IC50 is above 10000 nM.

With `Cc1cc(N2CCc3c(c(C)nn3CC34CCC(N5CCN(C)CC5=O)(CC3)CC4)C2)c2cnn(C)c2n1` [Compound No. 108, 1-(4-((5-(1,6-dimethyl-1H-pyrazolo[3,4-b]pyridin-4-yl)-3-methyl-4,5,6,7-tetrahydro-1H-pyrazolo[4,3-c]pyridin-1-yl)methyl)bicyclo[2.2.2]octan-1-yl)-4-methylpiperazin-2-one], the IC50 was determined as 8640 nM.

Take `Cc1cc(N2CCc3c(c(C)nn3CC34CCC(n5ccnc5)(CC3)CC4)C2)c2cnn(C)c2n1` [Compound No. 119, 1-((4-(1H-imidazol-1-yl)bicyclo[2.2.2]octan-1-yl)methyl)-5-(1,6-dimethyl-1H-pyrazolo[3,4-b]pyridin-4-yl)-3-methyl-4,5,6,7-tetrahydro-1H-pyrazolo[4,3-c]pyridine]: the IC50 was 608 nM.

In the case of `Cc1cc(N2CCc3c(c(C)nn3CC34CCC(NC(=O)CN5CC(F)C5)(CC3)CC4)C2)c2cnn(C)c2n1` [Compound No. 133, N-(4-((5-(1,6-dimethyl-1H-pyrazolo[3,4-b]pyridin-4-yl)-3-methyl-4,5,6,7-tetrahydro-1H-pyrazolo[4,3-c]pyridin-1-yl)methyl)bicyclo[2.2.2]octan-1-yl)-2-(3-fluoroazetidin-1-yl)acetamide], the IC50 is 1140 nM.

On to `Cc1cc(N2CCc3c(c(C)nn3CC34CCC(NC(=O)CO)(CC3)CC4)C2)c2cnn(C)c2n1` [Compound No. 135, N-(4-((5-(1,6-dimethyl-1H-pyrazolo[3,4-b]pyridin-4-yl)-3-methyl-4,5,6,7-tetrahydro-1H-pyrazolo[4,3-c]pyridin-1-yl)methyl)bicyclo[2.2.2]octan-1-yl)-2-hydroxyacetamide], for which the IC50 was above 10000 nM.

`Cc1cc(N2CCc3c(c(C)nn3CC34CCC(NC(=O)CN5CC(O)C5)(CC3)CC4)C2)c2cnn(C)c2n1` [Compound No. 136, N-(4-((5-(1,6-dimethyl-1H-pyrazolo[3,4-b]pyridin-4-yl)-3-methyl-4,5,6,7-tetrahydro-1H-pyrazolo[4,3-c]pyridin-1-yl)methyl)bicyclo[2.2.2]octan-1-yl)-2-(3-hydroxyazetidin-1-yl)acetamide]: the IC50 amounted to 1170 nM.

For `[2H]C([2H])([2H])n1ncc2c(N3CCc4c(c(C)nn4CC45CCC(N)(CC4)CC5)C3)cc(C)nc21` [Compound No. 140, 4-((3-methyl-5-(6-methyl-1-(methyl-d3)-1H-pyrazolo[3,4-b]pyridin-4-yl)-4,5,6,7-tetrahydro-1H-pyrazolo[4,3-c]pyridin-1-yl)methyl)bicyclo[2.2.2]octan-1-amine], the IC50 came out at 1800 nM.

For the origin of these results see patent publication US20240376099A1, “COMPOUNDS AND COMPOSITIONS AS INHIBITORS OF ENDOSOMAL TOLL-LIKE RECEPTORS” (Novartis AG, priority 2016, published 2024).
